{"source": "patent US11976057B2", "about": "“MrgX2 antagonists” (GlaxoSmithKline Intellectual Property Development Limited, priority 2020, dated 2024)", "molecular_target": "T1, human MRGPRX2 (Homo sapiens, UniProt Q96LB1)", "T1 sequence (Q96LB1 1-330)": "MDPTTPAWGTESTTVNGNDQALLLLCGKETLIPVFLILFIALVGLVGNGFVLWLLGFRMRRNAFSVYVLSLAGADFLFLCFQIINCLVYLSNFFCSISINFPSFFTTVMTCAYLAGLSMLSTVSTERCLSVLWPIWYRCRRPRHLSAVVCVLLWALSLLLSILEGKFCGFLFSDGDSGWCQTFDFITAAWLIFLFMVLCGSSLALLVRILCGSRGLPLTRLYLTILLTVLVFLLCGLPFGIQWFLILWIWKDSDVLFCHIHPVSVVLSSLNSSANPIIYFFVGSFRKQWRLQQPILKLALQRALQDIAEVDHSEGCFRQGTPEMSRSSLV", "assay": "Ca2+ mobilization assay (FLIPR TETRA): inhibition of Cortistatin-14 mediated MRGPRX2 activation"}
{"smiles": "C[C@@H](C(=O)Nc1ccc(OCC2CC2)nn1)N1CCC(F)(F)[C@@H](c2c[nH]c(=O)c(CN3CCOCC3)c2)C1", "note": "(single isomer, unassigned) [Example 225]", "values": [{"measurement": "IC50", "result": "100 to 3160", "unit": "nM"}]}
{"smiles": "CC(C(=O)Nc1ccc(Oc2ccncc2)cn1)N1CCC(F)(F)[C@@H](c2ccc(=O)[nH]c2)C1", "note": "(stereo partly drawn) [Example 64, 2-((S)-4,4-difluoro-3-(6-oxo-1,6-dihydropyridin-3-yl)piperidin-1-yl)-N-(5-(pyridin-4-yloxy)pyridin-2-yl)propanamide]", "values": [{"measurement": "IC50", "result": "100 to 3160", "unit": "nM"}]}
{"smiles": "C[C@@H](C(=O)Nc1ccc(OCC2CC2)cn1)N1CCC(F)(F)[C@@H](c2c[nH]c(=O)cn2)C1", "note": "[Example 133, (S)—N-(5-(cyclopropylmethoxy)pyridin-2-yl)-2-((R)-4,4-difluoro-3-(5-oxo-4,5-dihydropyrazin-2-yl)piperidin-1-yl)propanamide]", "values": [{"measurement": "IC50", "result": "≤ 10", "unit": "nM"}]}
{"smiles": "CC(C(=O)Nc1ncc(Oc2ccc(F)cc2F)cc1F)N1CCC(F)(F)[C@@H](c2ccc(=O)[nH]c2)C1", "note": "(stereo partly drawn) [Example 87, 2-((S)-4,4-difluoro-3-(6-oxo-1,6-dihydropyridin-3-yl)piperidin-1-yl)-N-(5-(2,4-difluorophenoxy)-3-fluoropyridin-2-yl)propanamide]", "values": [{"measurement": "IC50", "result": "≤ 10", "unit": "nM"}]}
{"smiles": "C[C@@H](C(=O)Nc1ccc(F)cn1)N1CCC(F)(F)[C@@H](c2ccc(=O)[nH]n2)C1", "note": "[Example 148, (S)-2-((R)-4,4-difluoro-3-(6-oxo-1,6-dihydropyridazin-3-yl)piperidin-1-yl)-N-(5-fluoropyridin-2-yl)propanamide]", "values": [{"measurement": "IC50", "result": "100 to 3160", "unit": "nM"}]}
{"smiles": "C[C@@H](C(=O)Nc1ccc(Cl)cn1)N1CCC(F)(F)[C@@H](c2cc[n+]([O-])cc2)C1", "note": "[Example 112, 4-((S)-1-((S)-1-((5-chloropyridin-2-yl)amino)-1-oxopropan-2-yl)-4,4-difluoropiperidin-3-yl)pyridine 1-oxide]", "values": [{"measurement": "IC50", "result": "100 to 3160", "unit": "nM"}]}
{"smiles": "C[C@@H](C(=O)Nc1ccc(C2CCCC2)cn1)N1CCC(F)(F)[C@@H](c2ccc(=O)[nH]c2)C1", "note": "[Example 14, (S)-N-(5-cyclopentyl-pyridin-2-yl)-2-((S)-4,4-difluoro-3-(6-oxo-1,6-dihydropyridin-3-yl)piperidin-1-yl)propanamide]", "values": [{"measurement": "IC50", "result": "10 to 100", "unit": "nM"}]}
{"smiles": "COc1cc(F)ccc1Oc1ccc(NC(=O)[C@H](C)N2CCC(F)(F)[C@@H](c3ccc(=O)[nH]c3)C2)nc1", "note": "[Example 269]", "values": [{"measurement": "IC50", "result": "≤ 10", "unit": "nM"}]}
{"smiles": "CC(C(=O)Nc1ccc(F)cn1)N1CCC(F)(F)C(c2c[nH]c(=O)c(CS(C)(=O)=O)c2)C1", "note": "(centres unmarked) [Example 213, 2-(4,4-difluoro-3-(5-((methylsulfonyl)methyl)-6-oxo-1,6-dihydropyridin-3-yl)piperidin-1-yl)-N-(5-fluoropyridin-2-yl)propanamide]", "values": [{"measurement": "IC50", "result": "100 to 3160", "unit": "nM"}]}
{"smiles": "C[C@@H](C(=O)Nc1cc2ccccc2cn1)N1CCC(F)(F)[C@@H](c2ccc(=O)[nH]c2)C1", "note": "[Example 34, (S)-2-((S)-4,4-difluoro-3-(6-oxo-1,6-dihydropyridin-3-yl)piperidin-1-yl)-N-(isoquinolin-3-yl)propanamide]", "values": [{"measurement": "IC50", "result": "100 to 3160", "unit": "nM"}]}
{"smiles": "C[C@@H](C(=O)Nc1ccc(OCC2CC2)nn1)N1CCC(F)(F)[C@@H](c2c[nH]c(=O)c([C@H](O)C(F)(F)F)c2)C1", "note": "(single isomer, unassigned) [Example 210, (S)-N-(6-(cyclopropylmethoxy)pyridazin-3-yl)-2-((S)-4,4-difluoro-3-(6-oxo-5-((S)-2,2,2-trifluoro-1-hydroxyethyl)-1,6-dihydropyridin-3-yl)piperidin-1-yl)propanamide or (S)-N-(6-(cyclopropylmethoxy(pyridazin-3-yl)-2-((S)-4,4-difluoro-3-(6-oxo-5-((R)-2,2,2-trifluoro-1-hydroxyethyl)-1,6-dihydroypridin-3-yl)piperidin-1-yl)propanamide]", "values": [{"measurement": "IC50", "result": "≤ 10", "unit": "nM"}]}
{"smiles": "CC(=O)NCc1cc(C2CN(C(C)C(=O)Nc3ccc(Oc4ccc(F)cc4F)cn3)CCC2(F)F)cc[n+]1[O-]", "note": "(mixture of isomers) [Example 262, 2-(acetamidomethyl)-4-(1-(1-((5-(2,4-difluorophenoxy)pyridin-2-yl)amino)-1-oxopropan-2-yl)-4,4-difluoropiperidin-3-yl)pyridine 1-oxide]", "values": [{"measurement": "IC50", "result": "≤ 10", "unit": "nM"}]}
{"smiles": "Cc1nc(-c2ccc(Oc3ccc(NC(=O)[C@H](C)N4CCC(F)(F)[C@@H](c5ccc(=O)[nH]c5)C4)nc3)c(F)c2)cs1", "note": "[Example 99, (S)-2-((S)-4,4-difluoro-3-(6-oxo-1,6-dihydropyridin-3-yl)piperidin-1-yl)-N-(5-(2-fluoro-4-(2-methylthiazol-4-yl)phenoxy)pyridin-2-yl)propanamide]", "values": [{"measurement": "IC50", "result": "10 to 100", "unit": "nM"}]}
{"smiles": "C[C@@H](C(=O)Nc1ccc(F)cn1)N1CCC(F)(F)C(c2cc(CO)c(=O)n(CC(F)(F)F)c2)C1", "note": "(stereo partly drawn) [Example 199, (2S)-2-(4,4-difluoro-3-(5-(hydroxymethyl)-6-oxo-1-(2,2,2-trifluoroethyl)-1,6-dihydropyridin-3-yl)piperidin-1-yl)-N-(5-fluoropyridin-2-yl)propanamide]", "values": [{"measurement": "IC50", "result": "100 to 3160", "unit": "nM"}]}
{"smiles": "C[C@@H](C(=O)Nc1ccc(F)cn1)N1CCC(F)(F)[C@@H](c2c[nH]c(=O)c(N)n2)C1", "note": "[Example 106, (S)-2-((R)-3-(6-amino-5-oxo-4,5-dihydropyrazin-2-yl)-4,4-difluoropiperidin-l-y1)-N-(5-fluoropyridin-2-yl) propanamide]", "values": [{"measurement": "IC50", "result": "10 to 100", "unit": "nM"}]}
{"smiles": "C[C@@H](C(=O)Nc1ccc(C(=O)c2ccc(F)cc2)cn1)N1CCC(F)(F)[C@@H](c2cc[n+]([O-])cc2)C1", "note": "[Example 128, 4-((S)-4,4-difluoro-1-((S)-1-((5-(4-fluorobenzoyl)pyridin-2-yl)amino)-1-oxopropan-2-yl)piperidin-3-yl)pyridine 1-oxide]", "values": [{"measurement": "IC50", "result": "100 to 3160", "unit": "nM"}]}
{"smiles": "C[C@@H](C(=O)Nc1ccc(Cl)cn1)N1CCC(F)(F)[C@@H](c2ccc(=O)[nH]c2)C1", "note": "[Example 81, (S)-N-(5-chloropyridin-2-yl)-2-((S)-4,4-difluoro-3-(6-oxo-1,6-dihydropyridin-3-yl)piperidin-1-yl)propanamide]", "values": [{"measurement": "IC50", "result": "100 to 3160", "unit": "nM"}]}
{"smiles": "C[C@@H](C(=O)Nc1ccc(OCC2CC2)nn1)N1CCC(F)(F)C(c2c[nH]c(=O)c(CO)c2)C1", "note": "(stereo partly drawn) [Example 154, (S)-N-(6-(cyclopropylmethoxy)pyridazin-3-yl)-2-(4,4-difluoro-3-(5-(hydroxymethyl)-6-oxo-1,6-dihydropyridin-3-yl)piperidin-1-yl)propanamide]", "values": [{"measurement": "IC50", "result": "100 to 3160", "unit": "nM"}]}
{"smiles": "C[C@@H](C(=O)Nc1ccc(OCC2CC2)nn1)N1CCC(F)(F)C(c2ccncc2)C1", "note": "(stereo partly drawn) [Example 224, (2S)—N-(6-(cyclopropylmethoxy)pyridazin-3-yl)-2-(4,4-difluoro-3-(pyridin-4-yl)piperidin-1-yl)propanamide]", "values": [{"measurement": "IC50", "result": "100 to 3160", "unit": "nM"}]}
{"smiles": "COc1ccc(NC(=O)C(C)N2CCC(F)(F)[C@@H](c3ccc(=O)[nH]c3)C2)nn1", "note": "(stereo partly drawn) [Example 43, 2-((S)-4,4-difluoro-3-(6-oxo-1,6-dihydropyridin-3-yl)piperidin-1-yl)-N-(6-methoxy-pyridazin-3-yl)propanamide]", "values": [{"measurement": "IC50", "result": "3160 to 31600", "unit": "nM"}]}
{"smiles": "C[C@@H](C(=O)Nc1ccc(-c2ccccc2)cn1)N1CCC(F)(F)[C@@H](c2ccc(=O)[nH]c2)C1", "note": "[Example 23, (S)-2-((S)-4,4-difluoro-3-(6-oxo-1,6-dihydropyridin-3-yl)piperidin-1-yl)-N-(5-phenylpyridin-2-yl)propanamide]", "values": [{"measurement": "IC50", "result": "100 to 3160", "unit": "nM"}]}
{"smiles": "C[C@@H](C(=O)Nc1cnc(Oc2ccc(F)cc2)cn1)[C@H]1CCC(F)(F)[C@@H](c2cc[n+]([O-])cc2)C1", "note": "[Example 292, 4-((1R,5S)-2,2-difluoro-5-((R)-1-((5-(4-fluorophenoxy)pyrazin-2-yl)amino)-1-oxopropan-2-yl)cyclohexyl)pyridine 1-oxide]", "values": [{"measurement": "IC50", "result": "10 to 100", "unit": "nM"}]}
{"smiles": "C[C@@H](C(=O)Nc1ccc(OCC2CC2)cn1)N1CCC(F)(F)[C@@H](c2ccc(=O)n(C)c2)C1", "note": "[Example 150, (S)—N-(5-(cyclopropylmethoxy)pyridin-2-yl)-2-((S)-4,4-difluoro-3-(1-methyl-6-oxo-1,6-dihydropyridin-3-yl)piperidin-1-yl)propanamide]", "values": [{"measurement": "IC50", "result": "10 to 100", "unit": "nM"}]}
{"smiles": "CC(C(=O)Nc1ccc(OC2CC3(CCC3)C2)cn1)N1CCC(F)(F)[C@@H](c2ccc(=O)[nH]c2)C1", "note": "(stereo partly drawn) [Example 73, 2-((S)-4,4-difluoro-3-(6-oxo-1,6-dihydropyridin-3-yl)piperidin-1-yl)-N-(5-(spiro[3.3]heptan-2-yloxy)pyridin-2-yl)propanamide]", "values": [{"measurement": "IC50", "result": "100 to 3160", "unit": "nM"}]}
{"smiles": "C[C@@H](C(=O)Nc1cnc(Oc2ccc(F)cc2F)cn1)N1CCC(F)(F)[C@@H](c2cc[n+]([O-])cc2)C1", "note": "[Example 132, 4-((S)-1-((S)-1-((5-(2,4-difluorophenoxy)pyrazin-2-yl)amino)-1-oxopropan-2-yl)-4,4-difluoropiperidin-3-yl)pyridine 1-oxide]", "values": [{"measurement": "IC50", "result": "≤ 10", "unit": "nM"}, {"measurement": "pIC50", "setting": "[…], agonist Cortistatin-14 at 4×EC50, 30 min incubation at 37° C., mean of a minimum of 2 experiments", "result": 8.6}]}
{"smiles": "C[C@@H](C(=O)Nc1ccc(OCC2CC2)nn1)N1CCC(F)(F)C(c2c[nH]c(=O)c(Br)c2)C1", "note": "(stereo partly drawn) [Example 221, (2S)-2-(3-(5-bromo-6-oxo-1,6-dihydropyridin-3-yl)-4,4-difluoropiperidin-1-yl)-N-(6-(cyclopropylmethoxy)pyridazin-3-yl)propanamide]", "values": [{"measurement": "IC50", "result": "10 to 100", "unit": "nM"}]}
{"smiles": "CC(C(=O)Nc1ccc(Oc2cncc(F)c2)cn1)N1CCC(F)(F)[C@@H](c2ccc(=O)[nH]c2)C1", "note": "(stereo partly drawn) [Example 67, 2-((S)-4,4-difluoro-3-(6-oxo-1,6-dihydropyridin-3-yl)piperidin-1-yl)-N-(5-((5-fluoropyridin-3-yl)oxy)pyridin-2-yl)propanamide]", "values": [{"measurement": "IC50", "result": "10 to 100", "unit": "nM"}]}
{"smiles": "C[C@@H](C(=O)Nc1ccc2oc(C3CC3)nc2n1)N1CCC(F)(F)[C@@H](c2ccc(=O)[nH]c2)C1", "note": "[Example 17, (S)-N-(2-cyclopropyl-oxazolo[4,5-b]pyridin-5-yl)-2-((S)-4,4-difluoro-3-(6-oxo-1,6-dihydropyridin-3-yl)piperidin-1-yl)propanamide]", "values": [{"measurement": "IC50", "result": "100 to 3160", "unit": "nM"}]}
